Source: patent publication US20060287316A1, “METHOD FOR IMPROVING PHARMACOKINETICS OF PROTEASE INHIBITORS AND PROTEASE INHIBITOR PRECURSORS” (priority 2005, published 2006)
In brackets after ≈: the same amount, converted by molar mass. Several values for one entry are separate records, joined by “and”; a condition that tells them apart may be missing. Identical values can stand only once. Like-named read-outs stand apart in the source and are kept apart here.

How the values were obtained:
[1] = Cytotoxicity in the same cell culture system; assay type: cell-based; settings: human, MT4 cells
Procedure: Cytotoxicity of PL-100 and other P is was evaluated in the same cell culture system. The selectivity index (SI) is the ratio of cytotoxicity (CC50) to antiviral activity (EC50). The selective index is similar to the therapeutic index but relates to in vitro studies.

[2] = tested on: laboratory adapted HIV strain (NL4-3); assay: microbe, parasite or virus in culture
Procedure: Briefly, the antiviral activity of PL-100 was determined using MT4 cells infected with a laboratory adapted HIV strain (NL4-3). For comparison, seven approved protease inhibitors (PIs) were tested in parallel.
The effect of 40% human serum on the antiviral activity of PL-100 in MT4 cells infected with NL4-3 was therefore evaluated.

Water solubility = assay type: physicochemical; settings: water, pH 7.5, aqueous buffer
[3] = Effect of CYP450 inhibitors on metabolism of HIV-1 protease inhibitors in human liver microsomes; assay type: in vitro ADME
Procedure: The effect of CYP450 inhibitors on the metabolism of HIV-1 anti-protease was tested in human liver microsomes.

[4] = tested on: 63 HIV isolates with reduced susceptibility to all approved protease inhibitors; assay type: cell-based, HIV-1; settings: for % viral strains with EC95s ≦ 200 ng/ml / % viral strains with EC95s ≦ 630 ng/ml: protein-binding adjusted EC95
Source text: The cross-resistance profile of PL-100 against 63 HIV isolates with reduced susceptibility to all approved protease inhibitors (P is) including atazanavir was thus tested.
The panel of 63 viral strains was selected based on the following rationale: 1) High-level loss of susceptibility to specific P is; 2) High-level loss of susceptibility to multiple P is; 3) Good representation of the primary mutations. This panel consists of resistant viruses from highly PI-experienced patients with high-level PI resistance.
The genotype of these viruses encompasses a wide variety of mutational patterns. We particularly looked for the following primary PI mutations: D30N, L33F/I, M461/L, G48V, I50L/V, V82A/F/S/T, I84V and L90M as defined by the International AIDS Society (IAS)-USA.
The dark cells indicate a […], the grey cells indicate FC values of 2.5≦FC<10 and the white cells indicate a FC value of; 0≦FC<2.5. The results of cross-resistance profile are further illustrated in the graph of FIG. 1.
In the cross-resistance profiling studies against the 63 resistant strains mentioned herein, EC95 of PL-100 was determined against each strain. The median EC95 represents the concentration required to inhibit 95% of the viral replication of 50% diverse drug-resistant HIV-1 variants tested. Table 8 illustrates the percentage of resistant strains tested with protein-binding adjusted EC95s≦200 ng/ml. The resistant strains are grouped by the number of primary mutations they have.
The EC95 of PL-100 was determined against each of the 63 resistant strains indicated herein. Table 9 illustrates the percentage of resistant strains tested with protein-binding adjusted EC95s≦630 ng/ml. The resistant strains are grouped by the number of primary mutations they have.

[5] = Pharmacokinetics of PL-100 and PL-461 in rats; assay type: in vivo, Sprague Dawley rats (Rattus norvegicus); settings: 5 mg/kg i.v., female rats
Procedure: Animal tested are Sprague Dawley rats (species Rattus norvegicus) of 6-7 weeks old at the start of dosing and were obtained from Charles River (Montreal, Canada). The study usually comprises about 6 animals per groups. […] The rats were fasted 3 h. before dosing and 3 h. after dosing. The formulations are prepared as indicated below. The solutions are stable at room temperature over a week and are covered with aluminum foil to avoid lights. […] The dosing volume for all formulations is 2 mL per kg body weight. Blood sample was collected at 15 min, 30 min, 45 min, 1 […] after the dosing. Blood samples were centrifuged to separate the plasma and separated plasma samples were placed into cryovials and frozen at -80° C. for further analysis. Plasma samples together with standards and quality control samples were treated by protein precipitation and then analyzed by HPLC-MS. […] The PK profile was obtained by administration of the test drugs; PL-100 and PL-461 in rats. […] The pharmacokinetic parameters of PL-100 and PL-461 in rats** was compared.

[6] = 63 diverse, multi-PI-resistant strains
[7] = 63 diverse, multi-PI-resistant strains, FC in IC50 vs NL-4.3
[8] = strains with 0 primary PI mutations
[9] = strains with 1 primary PI mutation
[10] = strains with 2 primary PI mutations
[11] = strains with 3 primary PI mutations
[12] = strains with 4 primary PI mutations
[13] = strains with 5-6 primary PI mutations
[14] = Sprague Dawley, rat, plasma, iv

## COC(=O)N[C@H](C(=O)NCCCC[C@@H](CO)N(CC(C)C)S(=O)(=O)c1ccc(N)cc1)C(c1ccccc1)c1ccccc1 [PL-100, (1S,5S)-(1-{5-[(4-amino-benzenesulfonyl)-isobutyl-amino]-6-hydroxy-hexylcarbamoyl}-2,2-diphenyl-ethyl)-carbamic acid methyl ester]
[1]
  CC50: 33000 nM
[2]; Human immunodeficiency virus 1, NL43, MT4, MT4 cells infected with NL4-3
  EC50: 16 nM
[2]; Human immunodeficiency virus 1, NL43, MT4, culture condition 10% FBS
  EC50: 18 nM
[2]; Human immunodeficiency virus 1, NL43, MT4, culture condition 10% FBS + 40% human serum
  EC50: 100 nM
[2]; culture condition 10% FBS
  Fold Change in EC50: 1.0
[2]; culture condition 10% FBS + 40% human serum
  Fold Change in EC50: 6 and 5.9
[2]; ratio of cytotoxicity (CC50) to antiviral activity (EC50)
  SI (CC50/EC50): 2,063
Water solubility
  solubility: 79 µg/mL (≈ 126 µM)
[3]; with ketoconazole and sulfaphenazole (FIG. 6)
  Effect of CYP450 inhibitor on metabolism: able to increase the PK of PL-100
[3]; with ritonavir (FIG. 6)
  Effect of CYP450 inhibitor on metabolism: most effective combination
[4]; [6]
  % FC < 2.5: 37%
  % FC < 10: 76%
  % FC > 50: 3%
[4]; [7]
  Mean FC: 8.7
  Median FC: 3.6
[4]; [8]
  % viral strains with EC95s ≦ 200 ng/ml: 100%
  % viral strains with EC95s ≦ 630 ng/ml: 100%
[4]; [9]
  % viral strains with EC95s ≦ 200 ng/ml: 100%
  % viral strains with EC95s ≦ 630 ng/ml: 100%
[4]; [10]
  % viral strains with EC95s ≦ 200 ng/ml: 36%
  % viral strains with EC95s ≦ 630 ng/ml: 82%
[4]; [11]
  % viral strains with EC95s ≦ 200 ng/ml: 23%
  % viral strains with EC95s ≦ 630 ng/ml: 55%
[4]; [12]
  % viral strains with EC95s ≦ 200 ng/ml: 0%
  % viral strains with EC95s ≦ 630 ng/ml: 29%
[4]; [13]
  % viral strains with EC95s ≦ 200 ng/ml: 0%
  % viral strains with EC95s ≦ 630 ng/ml: 0%
[4]; sample O3-129578, 46I/82T/84V, panel ID 11
  Fold change in IC50 vs. Reference: 1.2
[4]; sample O3-129585, 48V/54V/82A/90M, panel ID 26
  Fold change in IC50 vs. Reference: 1.9
[4]; sample O3-129586, 30N/88D/90M, panel ID 28
  Fold change in IC50 vs. Reference: 1.4
[4]; sample O3-148709 (non-B subtype), 32I/47A, panel ID 1
  Fold change in IC50 vs. Reference: 1.4
[4]; sample O3-1129583, 84V/90M, panel ID 21
  Fold change in IC50 vs. Reference: 2.3
[4]; sample O4-148712, 46I/88S, panel ID 122
  Fold change in IC50 vs. Reference: 0.8
[4]; sample O4-148712, 46I/88S, panel ID 124
  Fold change in IC50 vs. Reference: 1.1
[4]; sample O4-148713, 46I/88S, panel ID 123
  Fold change in IC50 vs. Reference: 0.4
[4]; sample O4-148716, 33F/54L/88S/90M, panel ID 10
  Fold change in IC50 vs. Reference: 1.7
[4]; sample O4-148721, 32I/46I/47V/50L, panel ID 127
  Fold change in IC50 vs. Reference: 1.1
[4]; sample O4-148725, 32I/46L/47V/84V, panel ID 53
  Fold change in IC50 vs. Reference: 0.6
[4]; sample O4-148739, 48V/54V/82A/90M, panel ID 138
  Fold change in IC50 vs. Reference: 1.1
[4]; sample O4-148742, 46L/48V/82A/84V, panel ID 94
  Fold change in IC50 vs. Reference: 1.2
[4]; sample O4-148748, 37S/41K/70E, panel ID 115
  Fold change in IC50 vs. Reference: 0.9
[4]; sample O4-148749, 37T/41K/70E, panel ID 151
  Fold change in IC50 vs. Reference: 1.9
[4]; sample O4-148751, 54V/84V, panel ID 171
  Fold change in IC50 vs. Reference: 0.8
[4]; sample O4-148752, 54V/84V, panel ID 152
  Fold change in IC50 vs. Reference: 1.2
[5]
  Cl_F: 58.3 mL/min/kg
  Tlast: 6 h
  Vz_F: 6.1 L/kg
  λz: 0.52 h⁻¹
[5]; Sprague Dawley, rat, plasma, intravenous, read-out: Clast
  concentration at 6 hr: 44 ng/mL
[5]; [14]
  AUC(0-inf): 1430 ng·h/mL
  AUC(0-t): 1370 ng·h/mL
  Cmax: 1800 ng/mL
  Tmax: 6 min
[5]; Sprague Dawley, rat, plasma, iv, read-out: T½ (converted)
  half-life: 72 min
